Measured values taken from patent publication US5670506A, “Halogen, isothiocyanate or azide substituted xanthines” (Cell Therapeutics, Inc., priority 1993, dated 1997).
Entries after “also recorded” stand apart in the source; their conditions may differ.

Columns and labels:
Format in all cases: cell-based
[1] = test system: CMV promoter activity in transformed (adenovirus) cells; assay: CMV promoter assay (gene transcription and translation, cytotoxic activity); conditions: read-out: IC50 (μM), CMV promoter assay
From the text: This example illustrates data regarding proliferative activity of various inventive compounds for inducting CMV promoter activity. The CMV promoter assay measures gene transcription and translation activity wherein any active compounds will nave cytotoxic activity to inhibit cellular protein synthesis machinery in transformed (adenovirus) cells.

human stromal cells = assay: inhibition of proliferation of human stromal cells stimulated with PDGF; conditions: FIG. 7; 50 ng/ml PDGF-BB, in words
Protocol: (§1) This assay is a model for restenosis and treatment of atherosclerosis and coronary artery disease. Stromal cells were starved in serum-free media for one day and then stimulated with 50 ng/ml PDGF-BB. The drags were added at the indicated concentrations one hour prior to PDGF stimulation. Tritiated thymidine was added for one day at the time of PDGF stimulation and the cells were harvested and counted by liquid scintillation counting 24 hrs later. Background counts (i.e., starved cells) were approximately 1% of control levels.
Another assay for measuring activity of the inventive compounds involves determining PDGF (platelet derived growth factor) proliferative response using human-derived stromal cells. Human stromal cells are plated (e.g., about 2000 cells per well) in defined media (e.g., 69% McCoy's, 12.5% fetal calf serum, 12.5% horse serum, 1% antibiotics, 1% glutamine, 1% vitamin supplement, 0.8% essential amino acids, 1% sodium pyruvate, 1% sodium bicarbonate, 0.4% non-essential amino acids and 0.36% hydrocortisone). Two to three days later, the stromal cells are starved in serum-free media. Twenty four hours later, the cells are treated with a stimulating agent, such as PDGF-AA, PDGF-BB or basic FGF (fibroblast growth factor) with or without IL-1α or TNF, and tritiated thymidine. Cell proliferation is determined by liquid scintillation counting.
as §1, with “drugs” for “drags”

[2] = test system: TNF release from monocytes in whole blood; assay: ex vivo human TNF model, LPS-mediated TNF release in whole blood; conditions: FIG. 14
Protocol: (§2) This model adds LPS to whole blood (normal human volunteers) to trigger a dose-dependent synthesis and extracellular release of TNF according to Desch et al. (Lymphokine Res. 8:141, 1989). The ex vivo model examines whether LPS-mediated release of TNF from monocytes in whole blood can be block by an inventive compound.
An ex vivo human sepsis model is described in Desch et al., Lymphokine Res. 8:141, 1989 and in Ooi et al., J. Exp. Med. 174:649, 1991. Briefly, whole blood from humans is incubated with LPS (endotoxin). TNF released from cells (mostly from monocytes) is measured. The inventive compounds lower TNF levels as compared with untreated controls in this model.
as §2, with “This example illustrates a comparative experiment comparing CT1595, CT1529 and CT2519 in an ex vivo human TNF model described herein. This assay is a predictive model for treatment and prevention of septic shock and sepsis syndrome. This” for “This”

[3] = test system: transformed cells (Ras 3T3) and normal 3T3 cells; assay: cytotoxicity in transformed and normal 3T3 cells; conditions: FIG. 9; five compounds
Protocol: A similar experiment is shown in FIG. 9 for five inventive compounds (see Table 1 […] for chemical names) showing differential cytotoxicity for the same normal and transformed cells.
Each inventive compound is investigated for cytotoxicity to determine appropriate doses for biological activity assays and to prevent cytotoxic reactions in in vitro assays when characterizing activity. Cells (e.g., NIH-3T3, Ras transformed 3T3 cells, malignant melanoma LD2 cells, etc.) are added to microtiter plates and drug is added about two days after plating. Cell viability is determined using a fluorescent viability stain (e.g., 2',7'-bis-(2-carboroxyethyl)-5-(and -6)-carboxyfluorescein acetoxymethyl ester, BCECF excitation 488 nm and emission 525 nm) 24, 48 or 72 hours after addition of the drug.
This example illustrates a comparison of cytotoxicity determinations for CT1595 in transformed cells (Ras 3T3) and in normal 3T3 cells at drug doses of 1, 10 and 100 μM in in vitro cell culture conditions (FIG. 8). […] A similar experiment is shown in FIG. 9 for five inventive compounds (see Table 1 above for chemical names) showing differential cytotoxicity for the same normal and transformed cells.

mast cells = assay: mast cell degranulation, serotonin release assay; conditions: 100 μM
From the text: A serotonin release assay is utilized to study the utility of the inventive compounds for treatment of asthma and allergy. This assay measures mast cell degranulation, which is an early phase reaction to allergen challenge. Mast cells grown in tissue culture are first loaded with ^3 H serotonin, which is incorporated into the granules in the cells. The mast cells are sensitized with antigen specific monoclonal IgE, and then triggered to degranulate with the specific antigen (dinitrophenol bound to BSA (DNP)). When the cells degranulate, ^3 H Serotonin is released into the medium, and can be measured directly. The ability of the inventive compounds to inhibit the degranulation response is determined by the decrease in ^3 H Serotonin released in the presence of drug and is represented as % INHIBITION. The IC50 of any given compound is determined by the ability of that compound to inhibit degranulation by 50%.
Specifically, the serotonin release assay seeds 2×10^5 cells in 0.5 ml medium in duplicate for spontaneous release, IgE+DNP, IgE+DNP+EtOH (vehicle control), and inventive compounds. One μCi [^3H ]-Serotonin/ml (i.e., 0.5 μCi/well) (NEN Research Products, cat. #NET-398 Hydroxytryptamine Binoxalate, 5-[1,2-^3 H(N)]-(Serotonin Binoxalate, [1,2-^3 H(N)]-)) and 1 μl/ml IgE is added. The cells are incubated for 18 hours at 37° C. in 5% CO2, washed twice with 0.5 ml Isotonic Buffer (25 mM disodium PIPES pH 7.1,100 mM NaCl, 5 mM KCl, 5 mM glucose, 0.4 mM MgCl2, 1 mM CaCl2, 0.1% BSA), and sterile filtered. 250 μl Isotonic Buffer is added per well and the plates are equilibrated in an incubator for about 10 min. Drug is added and cells are activated with 40 ng/ml DNP-BSA (1 mg/ml Diluted 1:200 in Isotonic Buffer) for 45 minutes using 2 μl/250 μl. Spontaneous release is determined in incubated cells with 250 μl Isotonic Buffer for 45 minutes and the reaction is stopped by removing supernatant and centrifuging at ~4000 rpm in microfuge for 15 seconds to remove any detached cells. Released radiolableled serotonin is counted. To determine amount of ^3 H-serotonin incorporated into the cells, (a) remove Isotonic Buffer and lyse cells by adding 250 μl 1% Triton-X100 in PBS, (b) add to 5 ml scintillation fluid, (c) wash 2× with Triton/PBS, and (d) add washes to scintillation tube. Percent serotonin release is calculated by dividing the amount of released serotonin by the sum of incorporated plus released serotonin and correcting for spontaneous released serotonin. Compound inhibition is calculated by dividing the percent serotonin release in the presence of a compound by the percent serotonin release in the absence of the compound.
This assay is described above and provides an in vitro model for an allergy and asthma therapeutic compound.

SMILES | IC50 [1] | inhibition of human stromal cell proliferation (human stromal cells) | block of LPS-mediated TNF release [2] | cytotoxic activity, normal and transformed 3T3 cells [3] | inhibition at 100 µM (mast cells)
CC(=O)OC(CBr)CCCCn1c(=O)c2ccccc2n(C)c1=O (stereo not shown) [CT1205, 3-(5-acetoxy-6-bromohexyl)-1-methylbenzoyleneurea] | 200 µM | – | – | – | –
CC(=O)OC(CBr)CCCCCCn1c(=O)c2c(ncn2C)n(C)c1=O (stereo not shown) [CT1514, 1-(7-acetoxy-8-bromooctyl)-3,7-dimethylxanthine] | > 500 µM | strongly inhibit proliferation | – | – | –
Cn1cnc2c1c(=O)n(CCCCC(O)CN=[N+]=[N-])c(=O)n2C (stereo not shown) [CT1517, 1-(6-azido-5-hydroxyhexyl)-3,7-dimethylxanthine] | > 500 µM | strongly inhibit proliferation | – | – | –
Cn1cnc2c1c(=O)n(CCCCCCCl)c(=O)n2C [CT1525, 1-(6-chlorohexyl)-3,7-dimethylxanthine] | > 500 µM | – | – | – | –
Cn1cnc2c1c(=O)n(CCCCCCOC(=O)CCl)c(=O)n2C [CT1527, 1-(6-(chloroacetoxy)hexyl)-3,7-dimethylxanthine] | 200 µM | – | – | – | –
CC(CCCCn1c(=O)c2c(ncn2C)n(C)c1=O)OC(=O)CCl (stereo not shown) [CT1529, 1-(5-(chloroacetoxy)hexyl)-3,7-dimethylxanthine] | 100 µM | – | could block TNF release in a dose-dependent fashion; also recorded: most effective agent at lower doses | significant cytotoxic activity | –
CC(F)CCCCn1c(=O)c2c(ncn2C)n(C)c1=O (stereo not shown) [CT1577, 1-(5-fluorohexyl)-3,7-dimethylxanthine] | > 500 µM | strongly inhibit proliferation | – | – | 46%
CC(=O)OC(CBr)CCCCCCCCn1c(=O)c2c(ncn2C)n(C)c1=O (stereo not shown) [CT1583, 1-(9-acetoxy-10-bromodecyl)-3,7-dimethylxanthine] | > 500 µM | strongly inhibit proliferation | – | – | –
Cn1cnc2c1c(=O)n(CCCCCCBr)c(=O)n2C [CT1589, 1-(6-bromohexyl)-3,7-dimethylxanthine] | 125 µM | strongly inhibit proliferation | – | – | 53%
CC(=O)OC(CBr)CCCCCCCn1c(=O)c(C)cn(C)c1=O (stereo not shown) [CT1908, 3-(8-acetoxy-9-bromononyl)-1-methylthymine] | 50 µM | – | – | – | –
